# Patent publication US20090232735A1, “USE OF FRUCTOSE-BASED THERAPIES FOR THE TREATMENT OF CANCER” (CEDARS-SINAI MEDICAL CENTER, priority 2005, published 2009)
# Tested on: PANC-1 pancreatic cancer cells
# Test: [1,2-13C2] stable isotope metabolic profiling in PANC-1 cells
# Format: cell-based, human
# Procedure: FIG. 28 depicts the metabolism of fructose and glucose in pancreatic cancer cells in accordance with an embodiment of the present invention. Lactate generation from glycolysis (a), and hexose oxidation in the pentose and tricarboxylic acid cycles (b) following treatment of PANC-1 cells with 2 mM glucose, 5.5 mM glucose, and 5.5 mM fructose for 72 h. […] In (b), the ^13C to ^12C ratio in the CO2 released from the PANC-1 cells is presented.
# FIG. 29 depicts fatty acid synthesis from glucose versus fructose in accordance with an embodiment of the present invention. Fatty acid synthesis represented by (a), ^13C-labelled oleate, (b) ^13C-labelled arachidic acid, and (c) ^13C-labelled 24-carbon fatty acid fraction following treatment of PANC-1 cells with 2 mM, and 5.5 mM glucose, and 5.5 mM fructose for 72 h. For the fatty acids, the fraction of ^13C-labeled oleate, arachidic acid or 24-carbon fatty acid is expressed as percentage of total oleate, arachidic acid or 24-carbon fatty acids, respectively.
# FIG. 30 depicts ribose and deoxyribose synthesis following glucose and fructose treatment in accordance with an embodiment of the present invention.
# Metabolism comprises anabolic (converting small molecules into big ones) and catabolic processes (converting food into useful energy), predicts the functional state of a cell, and analyzes the levels of the end products (metabolites) of anabolism and catabolism. […] The inventors employed [1, 2-^13C2] glucose, or [1,2-^13C2] fructose stable isotope-based dynamic metabolic profiling (SiDMAP, Los Angeles, US) to track and quantify changes in glucose, and fructose carbon re-distribution among major metabolic pathways in pancreatic cancer cells (Lee W N, Boros L G, Puigjaner J, Bassilian S, Lim S, Cascante M. Mass istopomer study of transketolase-transaldolase pathways of the pentose cycle with [1,2-^13C2]glucose. Am J Physiol 274:E843-51, 1998; Lee W N, Byerley L O, Bassilian S, Ajie H O, Clark I, Edmond J. Isotopomer study of lipogenesis in human hepatoma cells in culture: contribution of carbon and hydrogen atoms from glucose. […]
smiles,measurement,setting,value
O=C(CO)[C@@H](O)[C@H](O)[C@H](O)CO [fructose],pentose phosphate shunt pathway used (oxidative G6PDH vs non-oxidative TKK),"PANC-1, 5.5 mM sugar, 72 h",preferentially metabolized by TKK
same,lactate and CO2 production lower for fructose in comparison to glucose,"PANC-1, 13C-labeled sugar, 72 h",3-4 fold
same,13C-labeled sugar metabolized for fatty acid synthesis,"PANC-1, 72 h, fructose compared to glucose",comparatively less
